Results reported in ChEMBL document CHEMBL1139188, “Identification of diamino chromone-2-carboxamides as MCHr1 antagonists with minimal hERG channel activity” (Bioorg Med Chem Lett, 2007).
Values belong to the compound of their own block, whether it stands above or below them.

What was measured:
[1] = target: Voltage-gated inwardly rectifying potassium channel KCNH2 (Homo sapiens, UniProt Q12809)
Description: Displacement of [3H]dofetilide from hERG expressed in HEK293 cell membrane

hERG (KCNH2) = hERG (KCNH2) (Homo sapiens, UniProt Q12809); assay: Inhibition of hERG-mediated tail current expressed in HEK293 cells at 30 uM by patch clamp method; format: toxicity, cell-based; settings: HEK293 cells that express hERG
Chain of hERG (KCNH2) (Q12809 whole entry): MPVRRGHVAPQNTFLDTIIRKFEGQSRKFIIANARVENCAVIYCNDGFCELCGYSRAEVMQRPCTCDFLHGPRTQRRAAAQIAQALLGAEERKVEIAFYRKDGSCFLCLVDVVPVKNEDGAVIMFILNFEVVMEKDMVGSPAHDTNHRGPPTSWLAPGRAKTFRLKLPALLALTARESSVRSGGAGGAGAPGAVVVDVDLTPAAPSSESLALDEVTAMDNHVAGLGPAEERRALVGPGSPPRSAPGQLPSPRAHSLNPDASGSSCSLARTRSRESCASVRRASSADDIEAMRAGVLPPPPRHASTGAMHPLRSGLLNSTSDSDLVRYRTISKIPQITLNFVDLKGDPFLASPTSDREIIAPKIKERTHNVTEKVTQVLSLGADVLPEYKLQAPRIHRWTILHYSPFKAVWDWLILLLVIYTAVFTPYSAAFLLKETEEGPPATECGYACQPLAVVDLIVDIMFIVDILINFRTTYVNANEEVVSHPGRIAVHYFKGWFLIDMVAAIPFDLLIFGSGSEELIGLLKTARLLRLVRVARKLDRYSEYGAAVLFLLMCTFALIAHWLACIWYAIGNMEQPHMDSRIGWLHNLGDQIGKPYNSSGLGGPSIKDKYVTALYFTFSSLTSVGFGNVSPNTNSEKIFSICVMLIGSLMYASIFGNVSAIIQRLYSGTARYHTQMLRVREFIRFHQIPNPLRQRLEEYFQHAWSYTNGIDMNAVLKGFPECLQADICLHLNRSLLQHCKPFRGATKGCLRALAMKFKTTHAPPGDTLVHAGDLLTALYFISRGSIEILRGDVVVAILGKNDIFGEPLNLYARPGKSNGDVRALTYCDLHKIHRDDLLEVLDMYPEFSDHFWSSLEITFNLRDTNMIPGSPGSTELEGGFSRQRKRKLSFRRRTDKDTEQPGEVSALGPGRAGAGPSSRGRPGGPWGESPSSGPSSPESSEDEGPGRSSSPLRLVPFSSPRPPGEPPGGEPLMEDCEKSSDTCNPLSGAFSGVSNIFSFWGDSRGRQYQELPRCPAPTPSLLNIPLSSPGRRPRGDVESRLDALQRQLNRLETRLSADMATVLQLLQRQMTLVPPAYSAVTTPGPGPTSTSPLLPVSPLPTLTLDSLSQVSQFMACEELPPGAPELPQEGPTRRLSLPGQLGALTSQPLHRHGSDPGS

[2] = AUC (0 to infinity) in DIO mouse plasma at 10 mg/kg, po; format: ADME, organism-based; set-up: time infinity, dose 10 mg/kg, route oral
[3] = Cmax in DIO mouse plasma at 10 mg/kg, po; format: ADME, organism-based; set-up: dose 10 mg/kg, route oral
[4] = Drug level in DIO mouse plasma at 10 mg/kg, po after 12 hrs; format: ADME, organism-based; set-up: dose 10 mg/kg, route oral
[5] = Half life in DIO mouse plasma at 10 mg/kg, po; format: ADME, organism-based; set-up: dose 10 mg/kg, route oral
Mus musculus = assay: AUC (0 to infinity) in DIO mouse brain at 10 mg/kg, po; format: ADME, organism-based; set-up: time infinity, dose 10 mg/kg, route oral; settings: in vivo
[6] = Cmax in DIO mouse brain at 10 mg/kg, po; format: ADME, organism-based; set-up: dose 10 mg/kg, route oral
[7] = Drug level in DIO mouse brain at 10 mg/kg, po after 12 hrs; format: ADME, organism-based; set-up: dose 10 mg/kg, route oral; settings: read-out: Drug uptake
[8] = Half life in DIO mouse brain at 10 mg/kg, po; format: ADME, organism-based; set-up: dose 10 mg/kg, route oral

Chain of Voltage-gated inwardly rectifying potassium channel KCNH2 (Q12809 whole entry): as above

SMILES: O=C(NC1CCN(Cc2ccc(OCCCN3C(=O)CSC3=O)c(F)c2)CC1)c1cc(=O)c2ccc(F)cc2o1
IC50 [1]: 8.5 µM

AUC(0-inf) [2]: 3150 ng·h/mL
Cmax [3]: 598 ng/mL
concentration at 12 h [4]: 38 ng/mL
half-life [5]: 2 h
AUC (Mus musculus): 1378 ng·h/g
Cmax [6]: 185 ng/g
concentration at 12 h [7]: 75 ng/g
half-life [8]: 8 h
SMILES: O=C(NC1CCN(Cc2ccc(C(=O)NCCN3CCCC3)c(F)c2)CC1)c1cc(=O)c2ccc(F)cc2o1
inhibition at 30 µM (hERG (KCNH2)): 21%
IC50 [1]: > 100 µM

SMILES: O=C(NCCN1CCCC1)c1ccc(CN2CCC(NC(=O)c3cc(=O)c4ccc(F)cc4o3)CC2)c(Cl)c1
IC50 [1]: 11 µM

SMILES: COc1cc(C(=O)NCCN2CCCC2)ccc1CN1CCC(NC(=O)c2cc(=O)c3ccc(F)cc3o2)CC1
IC50 [1]: 6.6 µM

SMILES: O=C(CCN1CCCCC1)Nc1ccc(CN2CCC(NC(=O)c3cc(=O)c4ccc(F)cc4o3)CC2)cc1F
IC50 [1]: 9.18 µM

SMILES: COC(C)(C)CCOc1ccc(CN2CCC(NC(=O)c3cc(=O)c4ccc(F)cc4o3)CC2)cc1
IC50 [1]: 4.3 µM
